Structures are written as SMILES. Counter-ions that a name gives are not always drawn. Like-named read-outs stand apart in the source and are kept apart here. A value given as a limit tells only on which side of the number the result lay.

One data set concerns the target T1, Human αvβ3 (Homo sapiens, UniProt P05106+P06756).
T1 construct: purchased Chemicon International Inc., Temecula, Calif
As to the kind of experiment: In vitro solid phase purified αvβ3 binding assay (vitronectin/αvβ3). The method, boiled down:
(§1)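 αvβ3 (1 μg/ml) immobilised in Tris buffer with Ca2+/Mg2+/Mn2+, compounds added 5 min before 5 nM vitronectin, 3 h at 37 °C; bound vitronectin detected by anti-vitronectin antibody/peroxidase ELISA at 490 nm. GPIIb/IIIa coated overnight at 4 °C, biotinylated fibrinogen with compounds 2–4 h RT in modified Tyrodes buffer, avidin-HRP/o-phenylenediamine read at 490 nm.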

In another data set the target is GPIIb/IIIa (Homo sapiens, UniProt P05106+P08514). As to the kind of experiment: In vitro solid phase purified glycoprotein IIb/IIIa binding assay (biotinylated fibrinogen). The method, boiled down: as §1
Where [1] appears, read: isolated human αvβ3, 5 nM vitronectin, read-out: αvβ3 Binding IC50.
Where [2] appears, read: RGD-affinity purified GPIIb/IIIa, biotinylated fibrinogen, read-out: GPIIb/IIIa Binding IC50.

T1 sequence (P06756 31-889 limits assumed): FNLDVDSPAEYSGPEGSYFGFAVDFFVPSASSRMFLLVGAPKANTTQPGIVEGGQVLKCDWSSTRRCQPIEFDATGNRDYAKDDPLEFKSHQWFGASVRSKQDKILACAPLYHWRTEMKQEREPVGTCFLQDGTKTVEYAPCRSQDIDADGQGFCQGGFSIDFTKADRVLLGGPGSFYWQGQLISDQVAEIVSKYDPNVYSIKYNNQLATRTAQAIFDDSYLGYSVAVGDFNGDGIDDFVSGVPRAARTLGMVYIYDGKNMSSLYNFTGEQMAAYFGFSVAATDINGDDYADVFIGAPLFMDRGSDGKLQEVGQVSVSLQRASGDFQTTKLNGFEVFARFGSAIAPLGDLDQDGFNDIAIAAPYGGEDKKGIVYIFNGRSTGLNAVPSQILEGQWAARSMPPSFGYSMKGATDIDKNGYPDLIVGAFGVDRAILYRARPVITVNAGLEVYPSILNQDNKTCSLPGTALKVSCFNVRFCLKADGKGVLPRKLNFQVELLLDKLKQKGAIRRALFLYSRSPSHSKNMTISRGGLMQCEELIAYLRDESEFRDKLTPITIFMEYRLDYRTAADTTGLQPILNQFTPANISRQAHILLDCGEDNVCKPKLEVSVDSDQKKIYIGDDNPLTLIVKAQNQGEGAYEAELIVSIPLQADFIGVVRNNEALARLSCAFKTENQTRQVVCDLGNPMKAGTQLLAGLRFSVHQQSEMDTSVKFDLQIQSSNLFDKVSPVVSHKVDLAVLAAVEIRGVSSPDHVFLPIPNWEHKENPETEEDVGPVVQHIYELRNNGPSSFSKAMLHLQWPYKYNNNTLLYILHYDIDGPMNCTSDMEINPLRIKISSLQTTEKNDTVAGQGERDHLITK
T1 sequence (P06756 891-1048 partner limits assumed): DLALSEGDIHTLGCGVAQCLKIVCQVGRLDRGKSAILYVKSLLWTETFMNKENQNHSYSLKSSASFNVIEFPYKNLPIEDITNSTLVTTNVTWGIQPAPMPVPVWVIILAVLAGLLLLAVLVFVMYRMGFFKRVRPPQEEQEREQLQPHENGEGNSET
T1 sequence (P05106 27-788): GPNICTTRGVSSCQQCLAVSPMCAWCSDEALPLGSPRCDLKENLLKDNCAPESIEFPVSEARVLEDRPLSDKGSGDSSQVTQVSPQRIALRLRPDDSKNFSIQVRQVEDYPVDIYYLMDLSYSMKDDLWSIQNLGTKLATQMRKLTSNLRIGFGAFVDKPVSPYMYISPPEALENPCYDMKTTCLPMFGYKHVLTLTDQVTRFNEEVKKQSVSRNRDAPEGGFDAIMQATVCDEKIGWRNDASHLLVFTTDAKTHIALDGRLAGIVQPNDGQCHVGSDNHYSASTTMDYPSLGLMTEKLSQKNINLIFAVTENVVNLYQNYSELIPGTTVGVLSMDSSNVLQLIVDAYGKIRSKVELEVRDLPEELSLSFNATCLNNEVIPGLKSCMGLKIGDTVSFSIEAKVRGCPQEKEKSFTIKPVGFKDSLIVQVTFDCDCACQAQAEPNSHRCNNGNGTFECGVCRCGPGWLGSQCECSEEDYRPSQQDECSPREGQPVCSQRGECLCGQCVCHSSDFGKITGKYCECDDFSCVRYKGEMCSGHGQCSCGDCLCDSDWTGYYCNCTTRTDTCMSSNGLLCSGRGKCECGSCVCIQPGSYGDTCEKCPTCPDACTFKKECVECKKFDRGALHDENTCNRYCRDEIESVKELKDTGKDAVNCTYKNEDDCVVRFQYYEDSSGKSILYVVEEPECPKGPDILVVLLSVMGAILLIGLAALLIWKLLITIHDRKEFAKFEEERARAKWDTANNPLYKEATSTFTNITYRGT
GPIIb/IIIa, sequence (P08514 32-887 limits assumed): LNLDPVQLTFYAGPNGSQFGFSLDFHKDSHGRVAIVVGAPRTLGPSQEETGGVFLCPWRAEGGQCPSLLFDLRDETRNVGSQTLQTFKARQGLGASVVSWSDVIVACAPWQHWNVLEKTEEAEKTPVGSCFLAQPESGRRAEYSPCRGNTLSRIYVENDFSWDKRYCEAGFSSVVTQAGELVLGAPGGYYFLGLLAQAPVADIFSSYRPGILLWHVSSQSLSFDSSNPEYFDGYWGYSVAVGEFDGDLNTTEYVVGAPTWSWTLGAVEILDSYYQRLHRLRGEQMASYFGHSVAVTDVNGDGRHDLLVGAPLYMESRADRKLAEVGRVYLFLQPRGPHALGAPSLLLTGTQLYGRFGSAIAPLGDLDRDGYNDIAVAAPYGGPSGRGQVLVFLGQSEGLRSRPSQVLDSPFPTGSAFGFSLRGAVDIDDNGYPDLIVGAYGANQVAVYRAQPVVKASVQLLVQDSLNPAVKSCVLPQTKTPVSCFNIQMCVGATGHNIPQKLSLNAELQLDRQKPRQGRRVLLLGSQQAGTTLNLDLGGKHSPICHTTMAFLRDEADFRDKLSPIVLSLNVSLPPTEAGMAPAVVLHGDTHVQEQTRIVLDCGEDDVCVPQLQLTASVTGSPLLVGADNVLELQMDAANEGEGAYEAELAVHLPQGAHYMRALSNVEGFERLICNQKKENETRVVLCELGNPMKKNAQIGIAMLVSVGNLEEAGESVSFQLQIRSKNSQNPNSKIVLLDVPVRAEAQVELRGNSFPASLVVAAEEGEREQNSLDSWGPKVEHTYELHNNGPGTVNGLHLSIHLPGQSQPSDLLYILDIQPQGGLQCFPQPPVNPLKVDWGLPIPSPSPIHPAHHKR
GPIIb/IIIa, sequence (P08514 891-1039 partner limits assumed): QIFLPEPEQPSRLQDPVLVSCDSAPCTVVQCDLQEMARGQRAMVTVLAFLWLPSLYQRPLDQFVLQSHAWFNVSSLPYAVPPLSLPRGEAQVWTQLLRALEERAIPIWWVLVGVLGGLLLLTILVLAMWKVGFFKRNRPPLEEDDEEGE
GPIIb/IIIa, sequence (P05106 27-788): as the sequence (P05106 27-788) above

As a reminder, the melting point is the temperature of the solid-liquid transition. In the case of `Cc1c(C)c(C)c(S(=O)(=O)N[C@@H](Cc2nc3ccc(CCCNc4ccccn4)cc3c(=O)[nH]2)C(=O)O)c(C)c1C` (as salt: HCl) [Compound 11, (αS)-3,4-dihydro-4-oxo-α-[[(2,3,4,5,6-pentamethylphenyl)sulfonyl]amino]-6-[3-(2-pyridinylamino)propyl]-2-quinazolinepropanoic Acid], the melting point fell in the range of 218 to 221 °C. With `Cc1c(C)c(C)c(S(=O)(=O)N[C@@H](Cc2nc3ccc(/C=C/CNC4=NCCN4)cc3c(=O)[nH]2)C(=O)O)c(C)c1C` (as salt: TFA) [Compound 1, 6-[(1E)-3-[(4,5-dihydro-1H-imidazol-2-yl)amino]-1-propenyl]-(αS)-3,4-dihydro-4-oxo-α-[[(2,3,4,5,6-pentamethylphenyl)sulfonyl]amino]-2-quinazolinepropanoic Acid], the melting point lay in the range of 131 to 135 °C. Still for that read-out and setting: under `Cc1c(C)c(C)c(S(=O)(=O)N[C@@H](Cc2nc3ccc(/C=C/CNc4ccccn4)cc3c(=O)[nH]2)C(=O)O)c(C)c1C` (as salt: TFA) [Compound 10, (αS)-3,4-dihydro-4-oxo-α-[[(2,3,4,5,6-pentamethylphenyl)sulfonyl]amino]-6-[(1E)-3-(2-pyridinylamino)-1-propenyl]-2-quinazolinepropanoic Acid] stands 148 to 151 °C. Regarding `COc1ccc(OC(=O)N[C@@H](Cc2nc3ccc(/C=C/CNC(=O)NCc4ccccc4)cc3c(=O)[nH]2)C(=O)O)cc1` [Compound 77, (αS)-3,4-dihydro-α-[[(4-methoxyphenoxy)carbonyl]amino]-4-oxo-6-[(1E)-3-[[[(phenylmethyl)amino]carbonyl]amino]-1-propenyl]-2-quinazolinepropanoic acid], the values for the IC50 on Human αvβ3 and on GPIIb/IIIa were above 0.5 µM and 46 µM, respectively. `Cn1c(C(CC(=O)O)c2ccccc2)nc2ccc(C=CCNC3=NCCN3)cc2c1=O` [Compound 78, (βR,S)-3,4-dihydro-3-methyl-4-oxo-β-phenyl-6-[(1E)-3-[(4,5-dihydro-1H-imidazol-2-yl)amino]-1-propenyl]-2-quinazolinepropanoic acid]: the IC50 on Human αvβ3 (setting [1]) turned out to be 5.4 µM; at GPIIb/IIIa (setting [2]), 55 µM. The matching figures for `C/C(=C\NC(=O)NC1CCCCC1)c1ccc2nc(C[C@H](NS(=O)(=O)c3c(C)c(C)c(C)c(C)c3C)C(=O)O)[nH]c(=O)c2c1` [Compound 79, 6-[(E)-2-[[(cyclohexylamino)carbonyl]amino]-1-methylethenyl]-(αS)-3,4-dihydro-4-oxo-α-[[(2,3,4,5,6-pentamethylphenyl)sulfonyl]amino]-2-quinazolinepropanoic acid]: above 0.5 µM and 7.3 µM. The corresponding values for `Cc1coc(NC/C=C/c2ccc3nc(C[C@H](NS(=O)(=O)c4c(C)c(C)c(C)c(C)c4C)C(=O)O)[nH]c(=O)c3c2)n1` [Compound 81, (αS)-3,4-dihydro-6-[(1E)-3-[(4-methyl-2-oxazolyl)amino]-1-propenyl]-4-oxo-α-[[(2,3,4,5,6-pentamethylphenyl)sulfonyl]amino]-2-quinazolinepropanoic acid] are above 5 µM and 7.1 µM. The matching figures for `O=C(O)CCc1nc2ccc(/C=C/CNc3ccccn3)cc2c(=O)n1Cc1ccccc1` [Compound 82, 3,4-dihydro-4-oxo-3-(phenylmethyl)-6-[(1E)-3-(2-pyridinylamino)-1-propenyl]-2-quinazolinepropanoic acid]: above 5 µM and above 50 µM.
